These results are taken from patent US20050031652A1, “Compositions and methods comprising memantine and polyanionic polymers” (priority 2003, published 2005).

Data set [1] in a line: Human oral clinical pharmacokinetic study. The format is in vivo. The method, then:
Assuming a 31% protein binding and a retina-choroid concentration equivalent to the free-unbound plasma memantine concentration, the peak retinal level of memantine would be 0.30 μM.

The next data set is described as follows: in vivo. The conditions noted are these: rabbit, po, 2 mg/kg. The method, then: Tissue concentrations of memantine were determined after oral and topical dosing. Rabbits were dosed topically with 35 μl of a 0.1% (w/v) aqueous solution of radiolabeled memantine twice a day to both eyes for 7 days (equivalent to approximately 0.07 mg/kg/day). This composition is detailed in Table 1 as Composition 2. Another subset of rabbits was dosed orally with 2 mg/kg radiolabeled memantine for seven days. At the end of the dosing period ocular tissue concentrations were quantified.

A short description of data set [2]: Retina levels after topical versus oral dosing over seven days (Example 9). Particulars: albino, rabbit, in vivo, 1.76 mg/kg/day. On the procedure: Once a day topical dosing of 0.37% memantine HCl (w/v) borate buffered solution (0.242 mg/kg/day), was compared to daily oral dosing of memantine HCL, 1.76 mg/kg/day, in albino rabbits over seven days. […] Peak levels obtained by topical dosing far exceeded levels thought to be possible by oral dosing. […] Thus, topical dosing of this formulation is […].

For another data set, the system named is Rabbits. Description: Five day toxicology study, topical dosing twice a day. Format: in vivo, rabbit. Particulars: CMC based versus borate buffered formulations. The method, then: This study was followed up by a five day toxicology study which included borate buffered formulations ranging from 0.1 to 0.75% (w/v) memantine, CMC based formulations ranging from 0.1 to 1.0% (w/v) memantine and the relevant placebos. All formulations were preserved with 20 ppm BAK.
The formulations were dosed with 35 μL drops topically to the cul-de-sac of rabbits twice a day for […]. The rabbits were evaluated by gross clinical observation of irritation, ranked as none, slight, mild, moderate or severe. The irritation score was a sum of lacrimation, chemosis, hyperemia and tolerability all scored from none to severe.

Data set [3] in a line: Autoradiography after topical ophthalmic instillation. The format is in vivo, rabbit. The method, then: General disposition of topical ophthalmic 1-amino-3,5-dimethyladamantane hydrochloride (memantine) instillation was assessed by autoradiography. Briefly, albino and pigmented rabbits were dosed via topical ophthalmic instillation with a 0.74% (w/v) aqueous isotonic memantine solution having a pH of 7.4. After dosing, autoradiographic sections of the eye were acquired at 0.25, 0.5, 1, and 2 and 24 hours post dosing.

The conditions of data set [4]: cited from earlier work.
The conditions of data set [5]: assumed for the calculation; cited from earlier work.

Counter-ions that a name gives are not always drawn.

For `CC12CC3CC(C)(C1)CC(N)(C3)C2` [memantine, 1-amino-3,5-dimethyladamantane hydrochloride], the “peak retinal level (calculated)” value in data set [1] (oral 20 mg per day, assuming 31% protein binding and retina-choroid equal to free plasma concentration) is 0.30 µM. Besides, the mean plasma concentration in data set [1] (oral dose of 20 mg per day) was 95 ng/mL. In addition, the figures for the concentration at 7 days (in “in vivo”; in data set [2]) were 107 ng/mL and 100 ng/mL, respectively. The “improvement of tolerability, factor” value with Rabbits is recorded as 5-8. Moreover, the “half-life in the posterior globe (qualitative)” value in data set [3] (albino and pigmented rabbits, topical 0.74% (w/v) solution) is listed as “relatively long”. For the same compound, the “binding to ocular melanin” value in data set [3] (pigmented tissues, autoradiography intensity) is listed as “binds to the ocular melanin”. The “presence in posterior ocular tissues” value in data set [3] (topical 0.74% (w/v) aqueous isotonic solution pH 7.4, albino and pigmented rabbits) is “present in the posterior sclera, choroid and/or retina”. Moreover, the “dose limiting side effects” value in data set [4] (oral delivery) is “dizziness, lightheadedness and slurred speech”. Moreover, the “other adverse events associated with CNS excitation” value in data set [4] (oral dosages of 5 to 30 mg/day) is “anxiety, dissociation, dry mouth, headache, nervousness, slurred speech, tiredness and weakness”. The protein binding in data set [5] is 31%.
